Literature values in US20230303474A1, “TOTAL SYNTHESES OF SPECIALIZED PRO-RESOLVING MEDIATORS (SPMS), STRUCTURAL ISOMERS AND STRUCTURAL ANALOGS” (UNIVERSITÉ LAVAL, priority 2020, published 2023).

System: skeletal muscle cells
Details: background statement citing ref. 19

Compound | release of the prototypic myokine interleukin-6 (IL-6)
CC/C=C\C[C@H](O)\C=C/C=C/C=C/[C@H](O)C/C=C\C/C=C\CCC(=O)O [PD1, (4Z,7Z,10R,11E,13E,15Z,17S,19Z)-10,17-dihydroxydocosa-4,7,11,13,15,19-hexaenoic acid] | ineffective
CC/C=C\C[C@H](O)/C=C/C=C\C=C\[C@@H](O)C/C=C\C/C=C\CCC(=O)O [PDX, (4Z,7Z,10S,11E,13Z,15E,17S,19Z)-10,17-dihydroxydocosa-4,7,11,13,15,19-hexaenoic acid] | induce the release
